The source of these data is patent US20210309658A1, “ARYL COMPOUNDS FOR THE TREATMENT AND PROPHYLAXIS OF BACTERIAL INFECTION” (Hoffmann-La Roche Inc., priority 2018, published 2021).

Type in all cases: cell-based
The test system of data set [1] is E. coli (BW25113). In words: 50% growth inhibitory concentration (IC50) determination assay, E. coli. As to conditions: Escherichia coli, BW25113; growth inhibition, Iso-Sensitest broth, OD 600 nm over 16 h; read-out: IC50 (μM) E. coli K12 BW25113. The protocol: (§1) The in vitro antimicrobial activity of the compounds against E. coli (BW25113, obtained from Coli Genetic Stock Center, #7636) and K. pneumoniae (ATCC10031) was determined according to the following procedure:
(§2) The assay used a 10-points Iso-Sensitest broth medium to measure quantitatively the in vitro activity of the compounds against E. coli BW25113 and K. pneumoniae ATCC 10031.
(§3) Stock compounds in DMSO were serially two-fold diluted (range from 50 to 0.097 μM final concentration) in 384 wells microtiter plates and inoculated with 49 μL the bacterial suspension in Iso-Sensitest broth medium to have a final cell concentration of ˜5×10^5 CFU/mL in a final volume/well of 50 μL/well. Microtiter plates were incubated at 35±2° C.
(§4) Bacterial cell growth was determined with the measurement of optical density at λ=600 nm each 20 minutes over a time course of 16 h.
(§5) Growth inhibition was calculated during the logarithmic growth of the bacterial cells with determination of the concentration inhibiting 50% (IC50) of the growth.

A short description of data set [2]: Cytotoxicity assay (HepG2, CellTiter-Blue). The conditions noted are these: human; HepG2 cells, 3 days treatment; * = detection limit. On the procedure: The cytotoxicity of compounds of present invention was assessed by HepG2 assay. HepG2 cells (ATCC HB-8065™) were seeded into 96-well plates (1.2×10^4 cells per well) and treated with compounds for 3 days, cell viability was measured at day 3 post compound treatment using the CellTiter-Blue® Cell Viability Assay (Promega, Cat. No. G8082). 20 μL of Cell titer blue buffer were added to each well of the cells, incubated for 3 hours at 37° C., and the fluorescence value was measured by a plate reader (Molecular Device SpectraMax M2). The CC50 value of each compound is plotted with GraphPad Prism using four parameter logistic equation.
Background: Alamar Blue is a resazurin reagent that responds to reducing activity.

Data set [3] has as its system K. pneumoniae (ATCC10031). In words: 50% growth inhibitory concentration (IC50) determination assay, K. pneumoniae. The conditions noted are these: Klebsiella pneumoniae, ATCC10031; growth inhibition, Iso-Sensitest broth, OD 600 nm over 16 h; * = detection limit; read-out: IC50 (μM) K. pneumoniae ATCC10031. On the procedure: as §1, §2, §3, §4, §5
Data set [4] deals with E. coli (ATCC 25922). In words: Minimal Inhibitory Concentration (MIC) assay. As to conditions: Escherichia coli, ATCC25922; CAMHB, 20 hours at 35° C.; read-out: MIC (μg/mL) E. coli ATCC 25922. On the procedure: The in vitro potency of compounds to inhibit E. coli (ATCC 25922) growth was assessed by MIC (Minimal Inhibitory Concentration) assay. Samples were prepared from 10 mM DMSO stock solutions. After serial 2-fold dilution in DMSO in a master plate (Greiner, Cat No: 651201), 180 μL sterile distilled water was added to 20 μL each aliquot of the samples. Then 10 μL diluted compounds were transferred into a new assay plate (Costar, 3599).
The growth medium […] Mueller Hinton Broth (CAMHB) was prepared by adding the 20 mg per liter CaCl2 and 20 mg per liter MgCl2 into the MHB medium (Jianglai Company, sterilized).
Vials of each of the test microorganisms were maintained frozen in the vapor phase of a liquid nitrogen freezer. Took out the bacteria E. coli ATCC 25922 (KWIKSTIK, 0335K) from liquid nitrogen freezer, thawed it in room temperature, and diluted the bacterial in the CAMHB medium to achieve a final inoculum of 5×10^5 CFU/mL, 90 μL CAMHB with bacteria was dispensed to the assay plate and pipetted 5 times.
Then the assay plates were incubated for 20 hours at 35° C. in ambient air. Following incubation, the MIC (μg/mL), the lowest concentration of drug that inhibits visible growth of the microorganism was read and recorded throw the microscope.

SMILES strings stand for the structures. Values after ≈ are worked out from the molar mass of the structure shown. A value given as a limit tells only on which side of the number the result lay.

The IC50 is the concentration needed to halve the response being measured. One may read the CC50 as the concentration that lowers cell viability or growth by half. Read a low CC50 as greater toxicity to the cells.

In the case of `CCNc1cc(F)cc2c1[nH]c1ncc(-c3cncc(C(=O)NOC)c3)c(-n3ccc(C(F)(F)F)n3)c12` [Example 3.03, 5-[8-(Ethylamino)-6-fluoro-4-[3-(trifluoromethyl)pyrazol-1-yl]-9H-pyrido[2,3-b]indol-3-yl]-N-methoxy-pyridine-3-carboxamide], the results for the IC50 in data set [1] and in data set [3] were 0.775 µM and at most 0.098 µM, respectively. Besides, the CC50 at 3 days in data set [2] came out at 13000 nM.
As to `CCNc1cc(F)cc2c1[nH]c1ncc(-c3cnc(OC)nc3)c(-n3ncc4c3CNC4)c12` [Example 1.21, 4-(5,6-Dihydro-4H-pyrrolo[3,4-c]pyrazol-1-yl)-N-ethyl-6-fluoro-3-(2-methoxypyrimidin-5-yl)-9H-pyrido[2,3-b]indol-8-amine], it took 30500 nM to reach half-maximal cytotoxicity in data set [2] (CC50 at 3 days).
Regarding `CCNc1cc(F)cc2c1[nH]c1ncc(-c3cncc(C(=O)NCCOC)c3)c(-n3ccc(C(F)(F)F)n3)c12` [Example 3.06, 5-[8-(ethylamino)-6-fluoro-4-[3-(trifluoromethyl)pyrazol-1-yl]-9H-pyrido[2,3-b]indol-3-yl]-N-(2-methoxyethyl)pyridine-3-carboxamide], the IC50 was 1.45 µM in data set [1] and at most 0.098 µM in data set [3]. Also, the MIC in data set [4] turned out to be 0.734 µg/mL (≈ 1.36 µM).
For `CCNc1cc(F)cc2c1[nH]c1ncc(-c3cncc(C(=O)NC)c3)c(-n3ccc(C(F)(F)F)n3)c12` [Example 1.43, 5-[8-(Ethylamino)-6-fluoro-4-[3-(trifluoromethyl)pyrazol-1-yl]-9H-pyrido[2,3-b]indol-3-yl]-N-methyl-pyridine-3-carboxamide], the IC50 in data set [1] is 0.796 µM; in data set [3], at most 0.098 µM. This compound also gave a CC50 at 3 days in data set [2] of 11100 nM.
The compound `CNc1cc(F)cc2c1[nH]c1ncc(-c3cnc(OC)nc3)c(-n3nc(C#N)c4c3CNC4)c12` [Example 1.38, 1-[6-Fluoro-3-(2-methoxypyrimidin-5-yl)-8-(methylamino)-9H-pyrido[2,3-b]indol-4-yl]-5,6-dihydro-4H-pyrrolo[3,4-c]pyrazole-3-carbonitrile] had a CC50 at 3 days in data set [2] of 11000 nM.
With `CCNc1cc(F)cc2c1[nH]c1ncc(-c3cnc(OC)nc3)c(-n3ccc(C(F)(F)F)n3)c12` [Example 1.04, N-Ethyl-6-fluoro-3-(2-methoxypyrimidin-5-yl)-4-[3-(trifluoromethyl)pyrazol-1-yl]-9H-pyrido[2,3-b]indol-8-amine], the results for the IC50 in data set [1] and in data set [3] were 1.56 µM and 0.13 µM, respectively. The MIC in data set [4] is 0.552 µg/mL (≈ 1.17 µM).
Regarding `CCNc1cc(F)cc2c1[nH]c1ncc(-c3cncc(N)c3)c(-n3ccc(C(F)(F)F)n3)c12` [Example 1.37, 3-(5-Amino-3-pyridyl)-N-ethyl-6-fluoro-4-[3-(trifluoromethyl)pyrazol-1-yl]-9H-pyrido[2,3-b]indol-8-amine], the figures for the IC50 in data set [1] and in data set [3] were 1.32 µM and at most 0.098 µM, respectively. For the same compound, the midpoint of cytotoxicity in data set [2], the CC50 at 3 days, lay at 11100 nM.
Consider `CCNc1cc(F)cc2c1[nH]c1ncc(-c3cncc(C#N)c3)c(-n3cc(C(F)(F)F)cn3)c12` [Example 1.03, 5-[8-(Ethylamino)-6-fluoro-4-[4-(trifluoromethyl)pyrazol-1-yl]-9H-pyrido[2,3-b]indol-3-yl]pyridine-3-carbonitrile], for which the IC50 in data set [1] turned out to be 1.61 µM; in data set [3], 0.206 µM. In addition, in data set [4], the MIC came out at 0.679 µg/mL (≈ 1.46 µM).
On to `CCNc1cc(F)c(F)c2c1[nH]c1ncc(-c3cnc(OC)nc3)c(-n3ccc(C(F)(F)F)n3)c12` [Example 1.29, N-Ethyl-5,6-difluoro-3-(2-methoxypyrimidin-5-yl)-4-[3-(trifluoromethyl)pyrazol-1-yl]-9H-pyrido[2,3-b]indol-8-amine], for which the IC50 in data set [1] was found to be 1.05 µM; in data set [3], 0.175 µM. In addition, in data set [4], the MIC came to 0.354 µg/mL (≈ 0.723 µM).
For the compound `CCNc1cc(F)cc2c1[nH]c1ncc(-c3cnc(C)nc3)c(-n3ccc(C(F)(F)F)n3)c12` [Example 1.50], the IC50 in data set [1] is 0.422 µM; in data set [3], 0.098 µM. Besides, the MIC in data set [4] worked out at 0.534 µg/mL (≈ 1.17 µM).
Consider `CCNc1cc(F)cc2c1[nH]c1ncc(-c3cncnc3)c(-n3ccc(C(F)(F)F)n3)c12` [Example 1.12, N-Ethyl-6-fluoro-3-pyrimidin-5-yl-4-[3-(trifluoromethyl)pyrazol-1-yl]-9H-pyrido[2,3-b]indol-8-amine], for which the IC50 in data set [1] was 0.536 µM; in data set [3] it was at most 0.098 µM. The MIC in data set [4] amounted to 0.259 µg/mL (≈ 0.587 µM).
For the compound `CCNc1cc(F)cc2c1[nH]c1ncc(-c3cnc4ccnn4c3)c(-n3ccc(C(F)(F)F)n3)c12` [Example 1.19, N-Ethyl-6-fluoro-3-pyrazolo[1,5-a]pyrimidin-6-yl-4-[3-(trifluoromethyl)pyrazol-1-yl]-9H-pyrido[2,3-b]indol-8-amine], the IC50 stood at 0.739 µM in data set [1] and 0.196 µM in data set [3]. The MIC in data set [4] is 0.281 µg/mL (≈ 0.585 µM).
Turning to `CCNc1cc(F)cc2c1[nH]c1ncc(-c3cnc(OC)nc3)c(-n3cc(CN)c(C(F)(F)F)n3)c12` [Example 1.27, 4-[4-(Aminomethyl)-3-(trifluoromethyl)pyrazol-1-yl]-N-ethyl-6-fluoro-3-(2-methoxypyrimidin-5-yl)-9H-pyrido[2,3-b]indol-8-amine], the IC50 in data set [1] was 0.462 µM; in data set [3], at most 0.098 µM. The MIC in data set [4] worked out at 0.417 µg/mL (≈ 0.833 µM).
Regarding `CCNc1cc(F)cc2c1[nH]c1ncc(-c3cnc(N)nc3)c(-n3ccc(C(F)(F)F)n3)c12` [Example 1.06, 3-(2-Aminopyrimidin-5-yl)-N-ethyl-6-fluoro-4-[3-(trifluoromethyl)pyrazol-1-yl]-9H-pyrido[2,3-b]indol-8-amine], the IC50 in data set [1] is 0.495 µM; in data set [3] it was at most 0.098 µM. Further, the MIC in data set [4] was 0.267 µg/mL (≈ 0.585 µM).
With `CCNc1cc(F)cc2c1[nH]c1ncc(-c3cncc(C(N)=O)c3)c(-n3ccc(C(F)(F)F)n3)c12` [Example 1.15, 5-[8-(Ethylamino)-6-fluoro-4-[3-(trifluoromethyl)pyrazol-1-yl]-9H-pyrido[2,3-b]indol-3-yl]pyridine-3-carboxamide], the figures for the IC50 in data set [1] and in data set [3] were 0.289 µM and at most 0.098 µM, respectively. For the same compound, in data set [4], the MIC is 0.142 µg/mL (≈ 0.294 µM).
In the case of `CCNc1cc(F)cc2c1[nH]c1ncc(-c3cnc4cccnc4c3)c(-n3ccc(C(F)(F)F)n3)c12` [Example 1.11, N-Ethyl-6-fluoro-3-(1,5-naphthyridin-3-yl)-4-[3-(trifluoromethyl)pyrazol-1-yl]-9H-pyrido[2,3-b]indol-8-amine], the figures for the IC50 in data set [1] and in data set [3] were 0.803 µM and 0.208 µM, respectively. For the same compound, the MIC in data set [4] is 0.288 µg/mL (≈ 0.586 µM).
Turning to `CCNc1cc(F)c(F)c2c1[nH]c1ncc(-c3cncc(C#N)c3)c(-n3ccc(C(F)(F)F)n3)c12` [Example 1.28, 5-[8-(Ethylamino)-5,6-difluoro-4-[3-(trifluoromethyl)pyrazol-1-yl]-9H-pyrido[2,3-b]indol-3-yl]pyridine-3-carbonitrile], the results for the IC50 in data set [1] and in data set [3] were 0.8 µM and 0.199 µM, respectively. In addition, the MIC in data set [4] worked out at 0.7 µg/mL (≈ 1.45 µM).
Regarding `CNc1cc(F)cc2c1[nH]c1ncc(-c3cncc(C#N)c3)c(-n3cc(CN)c(C(F)(F)F)n3)c12` [Example 1.14, 5-[4-[4-(Aminomethyl)-3-(trifluoromethyl)pyrazol-1-yl]-6-fluoro-8-(methylamino)-9H-pyrido[2,3-b]indol-3-yl]pyridine-3-carbonitrile], in data set [2], it took 13300 nM to reach half-maximal cytotoxicity (CC50 at 3 days).
For `CCNc1cc(F)cc2c1[nH]c1ncc(-c3cncc(C#N)c3)c(-n3ccc(C#N)n3)c12` [Example 1.05, 5-[4-(3-Cyanopyrazol-1-yl)-8-(ethylamino)-6-fluoro-9H-pyrido[2,3-b]indol-3-yl]pyridine-3-carbonitrile], the IC50 in data set [1] was 0.701 µM; in data set [3], at most 0.098 µM. For the same compound, the MIC in data set [4] was found to be 0.314 µg/mL (≈ 0.743 µM).
